In patent publication US7510851B2, “Compositions and methods for diagnosing and treating diabetes, insulin resistance and dyslipidemia” (Metabolex, Inc., priority 2001, dated 2009):

What was measured:
[1] = tested on: pyruvate dehydrogenase kinase 4 mRNA (PDHK4); assay: standard mouse micro-array expression in treated 3T3-L1 adipocytes; assay type: cell-based
Source text: (§1) For RGS2 we observed down-regulation as follows; pioglitazone 0.29 fold p<0.00009, rosiglitazone 0.25 fold p<0.00003, troglitazone, 0.27 fold p<0.00085. […] As such these regulations are reflective of endogenous PPAR activation of endogenous genes.

RGS2 mRNA = assay: as above; assay type: cell-based
Source text: as §1

RGS2 = assay: Taqman PCR expression in treated 3T3-L1 adipocytes; assay type: cell-based, mouse; settings: for down regulation of RGS2, fold: Taqman PCR with SYBR green detection, verification of chip data; for RGS2 fold change: Taqman, 3T3-L1 adipocytes treated with rosiglitazone, PGD2 or 9α,11β-PGF2α
Source text: (§2) Primers were designed against murine RGS2 and murine PDHK4 and the gene expression changes observed with the standard mouse chips were verified using Taqman PCR with SYBR green detection. Treatment of cells with pioglitazone, rosiglitazone or troglitazone caused a down regulation of RGS2 by 0.47 fold, 0.41 fold and 0.55 fold, respectively.
(§3) Taqman primers were used to analyze the expression of RGS2 and PDHK4 in mouse 3T3-L1 adipocytes treated with rosiglitazone, PGD2 and 9α,11β-PGF2α. […] In contrast, the fold change with 9α,11β-PGF2α was 0.75. […] In contrast, the fold change with 9α,11β-PGF2α was 0.77.

PDHK4 = assay: Taqman PCR expression in treated 3T3-L1 adipocytes; assay type: cell-based, mouse; settings: for up regulation of PDHK4, fold: Taqman PCR with SYBR green detection, verification of chip data; for PDHK4 fold change: Taqman, 3T3-L1 adipocytes treated with rosiglitazone, PGD2 or 9α,11β-PGF2α
Source text: as §2, §3

[2] = tested on: aP2 reporter gene (endogenous PPAR); assay: cell-based natural PPAR-responsive promoter (aP2) reporter gene assay; design: species or system mouse
Procedure: Prostaglandin D2 and 9α,11β-PGF2α were assayed in cell-based assays (ex vivo) designed to detect activation of a natural PPAR responsive promoter. The assay uses the promoter region of the mouse aP2 gene, which contains binding sites for PPARs (both PPAR alpha and gamma) coupled to a reporter gene. Binding of a ligand to endogenous PPAR results in activation of the aP2 reporter gene.

PPAR alpha = target: T1, PPAR alpha (Homo sapiens, UniProt Q07869); assay: cell-based PPAR ligand activity reporter assay (PPAR ligand-binding domain coupled to heterologous DNA binding domain); settings: reporter gene expression
T1 construct: expressed in transfected cells
T1 sequence (Q07869 239-466 limits assumed): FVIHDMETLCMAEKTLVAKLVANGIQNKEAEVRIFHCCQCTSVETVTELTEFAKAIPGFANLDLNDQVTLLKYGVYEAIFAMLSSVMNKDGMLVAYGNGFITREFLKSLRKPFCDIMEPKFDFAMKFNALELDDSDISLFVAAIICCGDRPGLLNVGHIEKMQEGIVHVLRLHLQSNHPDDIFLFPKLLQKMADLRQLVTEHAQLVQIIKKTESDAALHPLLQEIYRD
Procedure: (§4) Prostaglandin D2 and 9α,11β-PGF2α were assayed in cell-based assays (ex vivo) designed to detect PPAR ligand activity. The assay uses a recombinant protein consisting of a PPAR ligand-binding domain coupled to a heterologous DNA binding domain. See, e.g., Reginato, et. al., J. Biol. Chem. 273:32679 (1998). Binding of a ligand to the PPAR binding domain drives expression of a reporter gene.

PPAR gamma = target: T2, PPAR gamma (Homo sapiens, UniProt P37231); assay: as above; settings: reporter gene expression
T2 construct: expressed in transfected cells
T2 sequence (P37231 238-503 limits assumed): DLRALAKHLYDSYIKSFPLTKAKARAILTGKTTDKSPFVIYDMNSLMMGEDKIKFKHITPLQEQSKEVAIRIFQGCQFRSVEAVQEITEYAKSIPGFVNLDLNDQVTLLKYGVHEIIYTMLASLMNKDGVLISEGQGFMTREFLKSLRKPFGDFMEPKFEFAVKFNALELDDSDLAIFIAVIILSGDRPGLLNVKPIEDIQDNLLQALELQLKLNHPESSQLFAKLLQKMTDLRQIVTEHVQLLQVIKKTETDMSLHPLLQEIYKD
Procedure: as §4

mouse 3T3-L1 adipocytes = assay: glucose transport in 3T3-L1 adipocytes; assay type: cell-based; settings: treatment for 40 hours
3T3-L1 adipocytes = assay: insulin-stimulated glucose transport (3H-2-deoxyglucose) in adenovirus-infected 3T3-L1 adipocytes; assay type: cell-based, mouse; settings: cells infected with control virus, 4 μM PGD2 for 20 hours
Procedure: 3T3-L1 adipocytes were infected with either control adenovirus or recombinant adenovirus encoding the four human AKR1C isoforms and incubated 20 hours to allow for protein expression. Cells were then treated 20 hours with 4 μM PGD2 and glucose transport in the absence and presence of insulin was measured.

Row | Compound | PDHK4 mRNA up regulation, fold [1] | RGS2 mRNA down-regulation, fold (RGS2 mRNA) | down regulation of RGS2, fold (RGS2) | RGS2 fold change (RGS2) | up regulation of PDHK4, fold (PDHK4) | PDHK4 fold change (PDHK4) | activation of the aP2 reporter gene [2] | activation of PPAR alpha (PPAR alpha) | activation of PPAR gamma (PPAR gamma) | effect on glucose transport (mouse 3T3-L1 adipocytes) | effect on insulin-stimulated glucose transport (3T3-L1 adipocytes)
1 | CN(CCOc1ccc(CC2SC(=O)NC2=O)cc1)c1ccccn1 (stereo not drawn) [rosiglitazone] | 3.16 fold | 0.25 fold | 0.41 fold | 0.20 fold change | 5.45 fold | 3.73 fold change |  |  |  |  | 
2 | Cc1c(C)c2c(c(C)c1O)CCC(C)(COc1ccc(CC3SC(=O)NC3=O)cc1)O2 (stereo not drawn) [troglitazone] | 3.2 fold | 0.27 fold | 0.55 fold |  | 5.5 fold |  |  |  |  |  | 
3 | CCCCC[C@H](O)/C=C/[C@H]1C(=O)C[C@H](O)[C@@H]1C/C=C\CCCC(=O)O [PGD2, prostaglandin D2] |  |  |  | 0.29 fold change |  | 2.39 fold change | Significant activation | Significant activation | Significant activation | enhances glucose transport to similar levels as those observed with the PPAR ligand rosiglitazone | enhances insulin-stimulated glucose transport
4 | CCCCC[C@H](O)/C=C/[C@@H]1[C@@H](C/C=C\CCCC(=O)O)[C@@H](O)C[C@@H]1O [9α,11β-PGF2α, 9α,11β-prostaglandin F2α] |  |  |  | 0.75 fold change |  | 0.77 fold change | without effect | without effect | without effect | no effect on glucose transport | 
5 | CCc1ccc(CCOc2ccc(CC3SC(=O)NC3=O)cc2)nc1 (stereo not drawn) [pioglitazone] | 3.13 fold | 0.29 fold | 0.47 fold |  | 4.9 fold |  |  |  |  |  | 
